The text below walks through data of US12421260B2, “Neurokinin-1 antagonist” (SHANGHAI SHENGDI PHARMACEUTICAL CO., LTD, priority 2019, dated 2025).

In brackets after ≈: the same amount, converted by molar mass. Like-named read-outs stand apart in the source and are kept apart here.

Broadly, the Cmax is the peak of the concentration-time curve. For orientation: Tmax means the time at which the peak concentration occurs. What is called solubility is the dissolved amount per volume that the medium holds.

Series [1] can be described thus: Plasma stability test, conversion in fresh human plasma (Test Example 2). The note with it: for Compound of Example 5 concentration in plasma: human plasma, 37° C. The class given is in vitro ADME. As for the experimental part: The compound of Example 5 and the compound of formula I.
Human fresh plasma was donated by volunteers with informed consent.
1.3 Preparation of Solution of the Compound
A certain amount of the compound of Example 5 was weighed and DMSO was added to prepare a 30 mM stock solution. A certain volume of the stock solution was diluted with DMSO to prepare solution I at a concentration of 1600 μM. Then a certain volume of the 1600 μM solution I was diluted with 45% methanol to prepare working solution II at a concentration of 16 μM. The 30 mM stock solution and the 1600 μM solution […] for the compound of formula I were also prepared by the above method.
(§1) 5 μL of the 16 μM working solution of the compound of Example 5 was added to 75 μL plasma at a final concentration of 1 μM. The samples were incubated in a 37° C. water bath for 0, 15, 30, 60, 90, 120 and 180 min. After completion of the incubation, 240 μL of internal standard containing acetonitrile was added into the samples which was then shaken on a shaker at 800 rpm for 10 min and centrifuged at 3700 rpm at 4° C. for 20 min. The supernatant was analyzed by LC-MS, and the injection volume was 2 μL.
1.5 Preparation of Standard Curve
The previously 1600 μM solution I was diluted with acetonitrile to prepare the standard curve working solution with concentrations of 160, 400, 1600, 4000, 8000, 16000 and 32000 ng/mL. The concentration of QC working solution was 480, 1920 and 25600 ng/mL. 5 μL of the standard curve working solution and QC working solution were added to 75 μL plasma to obtain the standard curve samples with final concentrations of 10, 25, 100, 250, 500, 1000 and 2000 ng/mL and QC samples with final concentrations of 30, 120 and 1600 ng/mL. 240 μL of acetocyano containing the internal standard was then added into the samples quickly, which was then shaken in a shaker at 800 rpm for 10 min and centrifuged at 3700 rpm at 4° C. for 20 min. The supernatant was collected and analyzed by LC-MS, and the injection volume was 2 μL.
The standard curve of the compound of formula I and QC sample were prepared by the above method.

A short description of series [2]: Chemical stability of the compounds (Test Example 1). The class given is physicochemical. The note with it: purity loss after placing for 7 days; 4° C. and room temperature. As for the experimental part:
2.1 Test of Stability of the Compounds
About 1 mg of sample was weighed into a vial, then the vial was placed in a vacuum bag and the bag was vacuumized. Then the bag was put into a container containing color-changing silica gel and sealed. Two parallel samples were prepared. Enough samples were prepared according to the sampling time point and placed at 4° C. and room temperature respectively.

A further series concerns Red blood cells (RBC). Nature of the series: Hemolytic effect (Test Example 8). The class given is cell-based, rabbits. Conditions: rabbit red blood cell 2% suspension, PBS. As for the experimental part: Red blood cells (RBC) were collected from the jugular vein or central ear artery of rabbits (10 ml of EDTA whole blood). The blood was put in a conical flask with glass beads and shaken for 10 minutes to remove fibrinogen, resulting in defibrinated blood. About 10 times the amount of sodium chloride solution was added to the defibrinated blood, which was then shaken well and centrifuged at 1500 rpm for 10 minutes. The supernatant was removed and the precipitated red blood cells were washed with sodium chloride injection for 3 times according to the above method, until the supernatant was observed colorless. The obtained red blood cells were prepared into a 2% (v/v) suspension with sodium chloride injection for later use.
The test samples (the compound of Example 5 and the compound of Example 19) were respectively dissolved in PBS (pH 7.4 or pH 5) and filtered to prepare 0.4 mg/ml, 0.8 mg/ml, 1.2 mg/ml, 1.6 mg/ml and 2 mg/ml solutions for later use.
A certain amount of test sample solution was added to the above […] for testing in the supernatant.
The sample should be further observed under a microscope, and if red blood cells can be seen as aggregated, then coagulation has occurred. The hemolytic effect of the compounds of the present disclosure was determined by using this method.

Series [3] in a line: Pharmacokinetic test in cynomolgus monkeys, Example 5 (Test Example 6). The class given is in vivo. The note with it: for AUC(0-t) / Cmax / Tmax: cynomolgus monkey, iv 2 mg/kg Example 5. As for the experimental part:
Cynomolgus monkeys were used as the test animals. The plasma drug concentration at different time points after iv administration of the compound of Example 5 by injection was determined using LC/MS/MS method. The in vivo pharmacokinetic of the compound of the present invention in cynomolgus monkeys was studied, and the pharmacokinetic characteristics were evaluated.
A certain amount of the compound of Example 5 was weighed and prepared into a pH=4.0 solution by using 20 mmol/L sodium dihydrogen phosphate for later use.
The drug was administered by intravenous with injection time of about 30 min, administration dose of 2 mg/kg, administration concentration of 0.4 mg/ml and administration volume of 5 ml/kg.
Blood was collected from the femoral vein before administration and 5 min, 0.25 h, 0.5 h, 1 h, 2 h, 4 h, 6 h, 8 h, 10 h, 24 h and 48 h after administration. About 0.6 ml of was collected for each sample, which was subject to anticoagulation using heparin sodium and placed on ice immediately after collection. The blood samples were placed in labeled centrifuge tubes after collection, and plasma was separated by centrifugation (centrifugation conditions: centrifugal force 2200 g, centrifugation at 2-8° C. for 10 min).
The content of the compound of Example 5 and rolapitant in plasma samples was determined by LC/MS/MS.

The nature of series [4]: Water solubility (Test Example 1). The class given is physicochemical. The note with it: aqueous buffer, thermodynamic from solid. How it is done: 1.1. Preparation of Reagents
The 100 mL strength reagents were prepared as follows:
pH=3.0: phosphate buffer solution: 100 ml of 20 mmol/L NaH2PO4, 0.1M H3PO4, adjusting pH to 3.0.
pH=4.0: phosphate buffer solution: 100 ml of 20 mmol/L NaH2PO4, 0.1M H3PO4, adjusting pH to 4.0. […]
An appropriate amount of test compound was accurately weighed. The solution was added at a small amount each time for several times and stirred until the compound was dissolved, and the content of the compound in the solution was determined.

Series [5] can be described thus: Metabolism in plasma of mouse (Test Example 4). The class given is in vitro ADME. On the set-up: unit not given here. How it is done: as §1
(§2) The metabolism of the compounds of Example 1, Example 2 and Example 8 in the plasma of mouse, rat and human was determined by referring to the test method in Test Example 2.

The nature of series [6]: Metabolism in plasma of rat (Test Example 4). The class given is in vitro ADME. The arrangement: unit not given here. As for the experimental part:
as §1, §2

Series [7] is described as follows: Metabolism in human plasma (Test Example 4). The class given is in vitro ADME. On the set-up: plasma concentration of the compounds of the examples: unit not given here. As for the experimental part: as §1, §2
A short description of series [8]: In vivo pharmacokinetic test in rats (Test Example 5). The note with it: plasma, rat, intravenous bolus 2 mg/kg. How it is done:
Rats were used as the test animals. The plasma drug concentration at different time points after administration of the compounds of Example 1 and Example 2 by injection was determined using LC/MS/MS method. The in vivo pharmacokinetic of the compounds in rats was studied, and the pharmacokinetic characteristics were evaluated.
A certain amount of the compounds of Example 1 and Example 2 were weighed and prepared into a pH=4.0 solution by using 20 mmol/L sodium dihydrogen phosphate for later use.
The drug was administered by intravenous bolus injection with an injection time of about 5 min, administration dose of 2 mg/kg, administration concentration of 0.4 mg/ml and administration volume of 5 ml/kg.
Blood was collected from the orbital vein before administration and 5 min, 0.25 h, 0.5 h, 1 h, 2 h, 4 h, 6 h, 8 h, 10 h, 24 h and 48 h after administration. About 0.6 mL was collected for each sample which was subject to anticoagulation using heparin sodium and placed on ice immediately after collection. The blood samples were placed in labeled centrifuge tubes after collection, and plasma was separated by centrifugation (centrifugation conditions: centrifugal force 2200 g, centrifugation at 2-8° C. for 10 min).

Turning to `CC(C)[C@H](N)C(=O)OCOC(=O)N1C[C@@]2(CCC(=O)N2)CC[C@@]1(CO[C@H](C)c1cc(C(F)(F)F)cc(C(F)(F)F)c1)c1ccccc1` [Example 5], the “Compound of Example 5 concentration in plasma” value was 1 µM in series [1] (0 min, 1 μM start); 0.53 µM in series [1] (15 min); 0.12 µM in [1] (30 min); 0.01 µM in series [1] (60 min); 0.00 µM in series [1] (90 min); 0.00 µM in series [1] (120 min). Besides, the “Compound of Example 5 concentration in plasma” value in [1] (180 min) stood at 0.00 µM. The Chemical stability result in [2] is “Good (purity reduced by <0.5% after placing for 7 days)”. The “concentration with hemolytic effect” value in the series with Red blood cells (RBC) was no less than 40000 ng/mL. In [3] (cynomolgus monkeys, iv 2 mg/kg), the “in vivo transformation into rolapitant (in words)” value was “most of the compound were rapidly transformed into the active metabolite rolapitant”. For the same compound, the AUC(0-t) in series [3] (plasma, analyte Example 5, read-out: AUC0-t) came out at 0.77 ± 0.29 ng·h/mL. Further, the Cmax in [3] (plasma, analyte Example 5, read-out: Cmax) stood at 2.28 ± 0.39 ng/mL. The Tmax in series [3] (plasma, analyte Example 5, read-out: Tmax) stood at 6.6 ± 7.2 min. Moreover, the solubility in series [4] (phosphate buffer, PH = 4) was greater than 10000 µg/mL.

“(5S,8S)-8-[{(1R)-1-(3,5-bis-(trifluoromethyl)phenyl)-ethoxy}-methyl]-8-phenyl-1,7-diazaspiro[4.5]dec-2-one [Rolapitant, reference compound]”: the “Compound of formula 1 concentration formed from Example 5” value in series [1] (human plasma incubated with 1 μM Example 5, 0 min) amounted to 0.00 µM; in [1] (human plasma incubated with 1 μM Example 5, 15 min) it was 0.78 µM; in series [1] (human plasma incubated with 1 μM Example 5, 30 min), 1.18 µM; in [1] (human plasma incubated with 1 μM Example 5, 60 min) it was 1.22 µM; in series [1] (human plasma incubated with 1 μM Example 5, 90 min) it was 1.31 µM; in [1] (human plasma incubated with 1 μM Example 5, 120 min), 1.28 µM. Besides, the “Compound of formula 1 concentration formed from Example 5” value in series [1] (human plasma incubated with 1 μM Example 5, 180 min) came to 1.02 µM. Further, the AUC(0-t) in series [3] (analyte rolapitant) came to 4326.87 ± 1820.65 ng·h/mL. Also, the Cmax in series [3] (analyte rolapitant) is listed as 315.25 ± 97.08 ng/mL. Moreover, in [3] (analyte rolapitant), the Tmax is 8.4 ± 6 min.

Consider `C[C@@H](OC[C@@]1(c2ccccc2)CC[C@]2(CCC(=O)N2)CN1C(=O)OCOP(=O)(O)O)c1cc(C(F)(F)F)cc(C(F)(F)F)c1` [Example 19], for which the “concentration with no hemolytic effect” value with Red blood cells (RBC) is “up to 2 mg/ml”.

Regarding `C[C@@H](OC[C@@]1(c2ccccc2)CC[C@]2(CCC(=O)N2C(=O)CCC(=O)O)CN1)c1cc(C(F)(F)F)cc(C(F)(F)F)c1` [Example 8], the “plasma concentration of the compounds of the examples” value is reported as 61.67 in series [5], 59.89 in series [6] and 54.54 in series [7]. The “conversion rate into rolapitant” value in series [7] is roughly 46%. For the same compound, the Chemical stability result in [2] is on record as “Moderate (purity reduced by 0.5%~2.0% after placing for 7 days)”. In [4] (PH = 5), this compound registered a solubility of 1370 µg/mL (≈ 2.28 mM).

In the case of `C[C@@H](OC[C@@]1(c2ccccc2)CC[C@]2(CCC(=O)N2)CN1C(=O)OCCCOP(=O)(O)O)c1cc(C(F)(F)F)cc(C(F)(F)F)c1` [Example 2], the “plasma concentration of the compounds of the examples” value in series [5] was 91.17; in series [6], 97.70; in series [7], 99.00. For the same compound, in series [8] (read-out: AUC0-t of the compound of the example), the AUC(0-t) was found to be 41.6 ng·h/mL. The AUC(0-inf) in [8] (read-out: AUC0-∞ of the compound of the example) was 42.2 ng·h/mL. Moreover, the MRT inf in [8] (read-out: MRT 0-∞ of the compound of the example) turned out to be 4.38 min. Also, the half-life in series [8] (read-out: T1/2 of the compound of the example (converted)) was 5.22 min. For the same compound, the “conversion into rolapitant (in words)” value in series [7] is “basically no convertion into rolapitant in human plasma, or only a slight conversion”. The Chemical stability entry in series [2] is listed as “Good (purity reduced by <0.5% after placing for 7 days)”. The same compound registered a solubility in series [4] (PH = 5) of 9050 µg/mL (≈ 13.3 mM).
